Results on four compounds are retold here after patent publication US6630504B2, “Phenoxyphenylheterocyclyl derivatives as SSRIs” (Pfizer Inc., priority 2000, dated 2003).

Each structure is given as a SMILES string. Several values for one entry are separate records, joined by “and”; a condition that tells them apart may be missing. Equal values may be shown once. Where a name gives a salt, the structure may show the parent alone.

As usually defined, the IC50 is the point on the concentration scale where inhibition reaches its midpoint.

T1 sequence (P31645 whole entry): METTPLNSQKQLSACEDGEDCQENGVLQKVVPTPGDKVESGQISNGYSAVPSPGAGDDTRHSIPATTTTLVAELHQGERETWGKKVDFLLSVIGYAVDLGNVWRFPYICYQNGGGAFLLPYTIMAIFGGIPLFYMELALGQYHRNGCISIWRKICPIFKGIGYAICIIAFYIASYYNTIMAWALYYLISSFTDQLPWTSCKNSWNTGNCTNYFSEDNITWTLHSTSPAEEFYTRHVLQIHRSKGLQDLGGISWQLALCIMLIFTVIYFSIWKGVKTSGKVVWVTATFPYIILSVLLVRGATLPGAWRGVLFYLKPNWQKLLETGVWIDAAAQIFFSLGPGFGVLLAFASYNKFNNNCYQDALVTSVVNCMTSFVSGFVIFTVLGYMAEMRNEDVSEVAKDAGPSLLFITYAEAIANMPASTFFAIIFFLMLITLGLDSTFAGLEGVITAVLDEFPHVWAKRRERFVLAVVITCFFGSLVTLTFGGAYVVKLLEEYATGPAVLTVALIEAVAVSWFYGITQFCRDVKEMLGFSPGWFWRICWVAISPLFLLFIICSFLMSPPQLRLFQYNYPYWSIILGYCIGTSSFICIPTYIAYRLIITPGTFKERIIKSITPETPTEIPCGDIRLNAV

The assay concerns the target T1, human serotonin transporter (hSERT) (Homo sapiens, UniProt P31645).
T1 construct: expressed in transfected cells; host or cells: HEK-293 (stably transfected)
The experiment in a line: inhibition of 3H-serotonin uptake in HEK-293 cells expressing hSERT. Format: cell-based. The settings on record: HEK-293 cells with hSERT, 3H-5HT 50 nM, 5 min incubation; read-out: serotonin re-uptake inhibition (SRI) IC50. As for the experimental part: A number of compounds were tested for biological activity by their ability to inhibit the uptake of serotonin by human serotonin transporters as follows.
Human embryonic kidney cells (HEK-293) stably transfected with either the human serotonin transporter (hSERT), noradrenaline transporter (hNET) or dopamine transporter (hDAT) were cultured under standard cell culture techniques (cells were grown at 37° C. and 5% CO2 in DMEM-culture media (supplemented with 10% dialysed foetal calf serum (FCS), 2 mM I-glutamine and 250 μg/ml geneticin)). Cells were harvested for the assay to yield a cell suspension of 750,000 cells/ml.
All test compounds were dissolved in 100% DMSO and diluted down in assay buffer to give appropriate test concentrations. Assays were carried out in 96-well filter bottom plates. Cells (7500 cells/assay well) were pre-incubated in standard assay buffer containing either test compound, standard inhibitor or compound vehicle (1% DMSO) for 5 minutes. Reactions were started by addition of either ^3H-Serotonin, ^3H-Noradrenaline or ^3H-Dopamine substrates. All reactions were carried out at room temperature in a shaking incubator. Incubation times were 5 minutes for the hSERT and hDAT assays and 15 minutes for the hNET assay. Reactions were terminated by removal of the reaction mixture using a vacuum manifold followed by rapid washing with ice cold assay buffer. The quantity of ^3H-substrate incorporated into the cells was then quantified.
Assay plates were dried in a microwave oven, scintillation fluid added, and radioactivity measured. Potency of test compounds was quantified as IC50 values (concentration of test compound required to inhibit the specific uptake of radiolabelled substrate into the cells by 50%).
In the case of `CNS(=O)(=O)c1ccc(Oc2ccc(SC)cc2)c(C2CCCN2)c1` (single isomer, unassigned) [Example 11, N-methyl-4-[4-(methylsulfanyl)phenoxy]-3-(2-pyrrolidinyl)benzenesulfonamide], the IC50 was ≤ 100 nM and ≤ 50 nM and 5.9 nM. Regarding `CS(=O)(=O)Nc1ccc(Oc2ccc(OC(F)(F)F)cc2)c(C2CCCN2)c1` (single isomer, unassigned) [Example 21], the IC50 stood at 13 nM. For the compound `CSc1ccc(Oc2ccc(S(N)(=O)=O)cc2C2CCCN2)cc1` (single isomer, unassigned; (+)) [Example 7, (+)4-[4-(Methylsulfanyl)phenoxy]-3-(2-pyrrolidinyl)benzenesulfonamide hydrochloride], the half-maximal inhibitory concentration (IC50) is ≤ 100 nM and ≤ 50 nM and 5.4 nM. For `CS(=O)(=O)Nc1ccc(Oc2ccc(OC(F)(F)F)cc2)c(C2CCCN2)c1` (single isomer, unassigned; (+)) [Example 22, (+) N-{3-(2-pyrrolidinyl)-4-[4-(trifluoromethoxy)phenoxy]phenyl}-methanesulfonamide], the IC50 was at most 50 nM.
